Measurements: patent publication US7572799B2, “Pyrazolo[4,3-d]pyrimidines as Phosphodiesterase Inhibitors” (Pfizer Inc, priority 2003, dated 2009)
Where two headings read alike, the source gives them in different places.

Molecular target: PDE-5 (UniProt O76074)
Assay: In vitro PDE inhibitory activity against PDE5 (batch method or scintillation proximity assay)
Assay type: biochemical, human
Conditions: representative compounds
Excerpt: The compounds of the invention are inhibitors of cyclic guanylate monophosphate (cGMP)-specific phosphodiesterase type 5 (PDE-5 inhibitors).
The required PDE enzymes can be isolated from a variety of sources, including human corpus cavernosum, human and rabbit platelets, human cardiac ventricle, human skeletal muscle and bovine retina, essentially by a modification of the method of Thompson, W J et al.; Biochemistry 18(23), 5228-5237, 1979, as described by Ballard S A et al.; J. Urology 159(6), 2164-2171, 1998. In particular, cGMP-specific PDE5 and cGMP-inhibited cAMP PDE3 can be obtained from human corpus cavernosum tissue, human platelets or rabbit platelets; cGMP-stimulated PDE2 was obtained from human corpus cavernosum; calcium/calmodulin (Ca/CAM)-dependent PDE1 from human cardiac ventricle; cAMP-specific PDE4 from human skeletal muscle; and photoreceptor PDE6 from bovine retina. Phosphodiesterases 7-11 can be generated from full length human recombinant clones transfected into SF9 cells.
Assays can be performed either using a modification of the “batch”method of Thompson W J and Appleman M M; Biochemistry 10(2), 311-316, 1971, essentially as described by Ballard S A et al.; J. Urology 159(6), 2164-2171, 1998, or using a scintillation proximity assay for the direct detection of [^3H]-labelled AMP/GMP using a modification of the protocol described by Amersham plc under product code TRKQ7090/7100. In summary, for the scintillation proximity assay the effect of PDE inhibitors was investigated by assaying a fixed amount of enzyme in the presence of varying inhibitor concentrations and low substrate, (cGMP or cAMP in a 3:1 ratio unlabelled to [^3H]-labeled at a concentration of ˜⅓ Km, or less) such that IC50≅Ki. The final assay volume was made up to 100 μl with assay buffer [20 mM Tris-HCl pH 7.4, 5 mM MgCl2, 1 mg/ml bovine serum albumin]. Reactions were initiated with enzyme, incubated for 30-60 min at 30° C. to give <30% substrate turnover and terminated with 50 μl yttrium silicate SPA beads (containing 3 mM of the respective unlabelled cyclic nucleotide for PDEs 9 and 11).

Structure (SMILES) | IC50 (read-out: IC50) [nM] | IC50 [nM]
CCOCCn1nc(C(=O)O)c2nc(N3CCCC3)nc(Nc3cc(C)ccn3)c21 [Example 134, 1-(2-Ethoxyethyl)-7-[(4-methylpyridin-2-yl)amino]-5-pyrrolidin-1-yl-1H-pyrazolo[4,3-d]pyrimidine-3-carboxylic acid] | 5.02 | 
CCN(C)c1nc(Nc2cc(C)ccn2)c2c(n1)c(C(=O)O)nn2CC1CCOCC1 [Example 58] |  | 100
CCOCCn1nc(C(=O)NS(C)(=O)=O)c2nc(N(C)C(C)C)nc(Nc3cc(C)ccn3)c21 [Example 113, N-[1-(2-Ethoxyethyl)-5-(N-isopropyl-N-methylamino)-7-(4-methylpyridin-2-ylamino)-1H-pyrazolo[4,3-d]pyrimidine-3-carbonyl]methanesulfonamide] | 0.27 | 
CCOCCn1nc(C(=O)NS(C)(=O)=O)c2nc(N(C)CC)nc(Nc3cc(C)ncn3)c21 [Example 157] | 0.771 | 
CCOCCn1nc(C(=O)O)c2nc(N(C)C(C)C)nc(N[C@@H]3CCOC3)c21 [Example 67] |  | 100
CCNc1nc(Nc2cc(C)ccn2)c2c(n1)c(C(=O)O)nn2CCOC(C)C [Example 63] | 4.58 | 
CCOCCn1nc(-c2nnn[nH]2)c2nc(N(C)C)nc(Nc3cc(C)ccn3)c21 [Example 80] | 2.88 | 
CCOCCn1nc(C(=O)OCCN(C)C)c2nc(N(C)C)nc(Nc3cc(C)ccn3)c21 [Example 10, 2-(Dimethylamino)ethyl 5-dimethylamino-1-(2-ethoxyethyl)-7-(4-methylpyridin-2-ylamino)-1H-pyrazolo[4,3-d]pyrimidine-3-carboxylate] | 1.86 | 
CCOCCn1nc(C(=O)O)c2nc(N(C)C(C)C)nc(Nc3cccc(F)c3)c21 [Example 88] | 21.3 | 
CCOCCn1nc(C(=O)O)c2nc(N3CC[C@@H](OC)C3)nc(Nc3cc(C)ccn3)c21 [Example 13] | 1.46 | 
CCOCCn1nc(C(=O)OC)c2nc(N(CC)CC)nc(Nc3ccc(F)c(C)c3)c21 [Example 117, Methyl 5-(diethylamino)-1-(2-ethoxyethyl)-7-[(4-fluoro-3-methylphenyl)amino]-1H-pyrazolo[4,3-d]pyrimidine-3-carboxylate] | 0.025 | 
CCOCCn1nc(C(=O)O)c2nc(N(CC)CC)nc(N[C@@H]3CCOC3)c21 [Example 68] |  | 100
CCOCCn1nc(C(=O)OC)c2nc(N(C)C(C)C)nc(Nc3cccc(C)n3)c21 [Example 6, Methyl 1-(2-ethoxyethyl)-5-(N-isopropyl-N-methylamino)-7-(6-methylpyridin-2-ylamino) -1H-pyrazolo[4,3-d]pyrimidine-3-carboxylate] | 2.89 | 
CCOCCn1nc(C(=O)O)c2nc(N(C)C)nc(NC3CC3)c21 [Example 35] |  | 100
CCOCCn1nc(C(=O)O)c2nc(N(C)CC)nc(Nc3cc(C)ncn3)c21 [Example 120] | 1.12 | 
CCOCCn1nc(C(=O)O)c2nc(N(C)C(C)C)nc(Nc3ccc(F)c(C)c3)c21 [Example 85] | 0.055 | 
CCOCCn1nc(C(=O)O)c2nc(N(CC)CCOC)nc(Nc3cc(C)ccn3)c21 [Example 52] | 3.4 | 
CCN(C)c1nc(Nc2cc(C)ccn2)c2c(n1)c(C(=O)O)nn2CCOC(C)C [Example 62] | 1.85 | 
CCOCCn1nc(C(=O)O)c2nc(N(C)C3CCC3)nc(Nc3cc(C)ccn3)c21 [Example 51] | 2.57 | 
CCN(CC)c1nc(Nc2ccc(F)c(C)c2)c2c(n1)c(C(=O)O)nn2CCOCC(F)(F)F [Example 140] | 0.099 | 
CCOCCn1nc(C(=O)O)c2nc(N(C)C(C)C)nc(Nc3ccc(F)cn3)c21 [Example 81, 1-(2-Ethoxyethyl)-7-(5-fluoropyridin-2-ylamino)-5-(N-isopropyl-N-methylamino)-1H-pyrazolo[4,3-d]pyrimidine-3-carboxylic acid] | 16.7 | 
CCOCCn1nc(C(=O)O)c2nc(N(C)C(C)C)nc(Nc3cccc(C)c3)c21 [Example 94] | 0.303 | 
CCN(C)c1nc(Nc2cc(C)ccn2)c2c(n1)c(C(=O)NS(C)(=O)=O)nn2CCOCCCF [Example 175] | 0.57 | 
CCOCCn1nc(C(=O)O)c2nc(N(C)CCOC)nc(Nc3cc(C)ccn3)c21 [Example 17] | 2.93 | 
CCOCCn1nc(C(=O)O)c2nc(N(C)C(C)C)nc(Nc3cccc(F)c3F)c21 [Example 93] | 23.2 | 
Cc1ccnc(Nc2nc(N(C)C)nc3c(C(=O)O)nn(CC4CCCCO4)c23)c1 (stereo not shown) [Example 59] |  | 43.6
CCOCCn1nc(C(=O)O)c2nc(N(C)C(C)C)nc(Nc3cc(F)ccc3F)c21 [Example 92] | 41 | 
CCOCCn1nc(C(=O)O)c2nc(N(C)C(C)C)nc(NC3CCC3)c21 [Example 32] |  | 100

Structure (SMILES) | IC50 (read-out: IC50) [nM] | IC50 [nM]
CCOCCn1nc(C(=O)O)c2nc(N(C)C)nc(NC3CCOCC3)c21 [Example 82] | 55.1 | 
CCOCCn1nc(C(=O)O)c2nc(N(C)C(C)C)nc(Nc3ccccc3)c21 [Example 95] | 9.11 | 
CCOCCn1nc(C(=O)O)c2nc(N(C)CC)nc(Nc3ccc(F)c(C)c3)c21 [Example 87] | 0.087 | 
CCOCCn1nc(C(=O)O)c2nc(N(C)C(C)C)nc(Nc3cccc(OC)n3)c21 [Example 84] | 2.37 | 
CCOCCn1nc(C(=O)O)c2nc(N(C)C)nc(Nc3ccc(C)cn3)c21 [Example 24] | 53.9 | 
CCN(C)c1nc(Nc2ccc(F)c(C)c2)c2c(n1)c(C(=O)O)nn2CCOCC(F)(F)F [Example 137] | 0.068 | 
CCN(C)c1nc(Nc2cc(C)ccn2)c2c(n1)c(C(=O)O)nn2CC1CCCCO1 (stereo not shown) [Example 60] |  | 8.02
CO[C@H](C)Cn1nc(C(=O)O)c2nc(N(C)C)nc(Nc3cc(C)ccn3)c21 [Example 64] | 100 | 
CCOCCn1nc(C(=O)O)c2nc(N(C)C(C)C)nc(Nc3ccncn3)c21 [Example 28] | 11.6 | 
CCOCCn1nc(C(=O)O)c2nc(N3CC[C@H](OC)C3)nc(Nc3cc(C)ccn3)c21 [Example 12] | 14.7 | 
CCOCCn1nc(C(=O)O)c2nc(N(C)C3CCC3)nc(N[C@@H]3CCOC3)c21 [Example 69] |  | 100
CCN(C)c1nc(Nc2cc(C)ccn2)c2c(n1)c(C(=O)O)nn2C[C@@H](C)OC [Example 65] | 25 | 
CCOCCn1nc(C(=O)O)c2nc(N(C)CC)nc(Nc3cccc(C)n3)c21 [Example 38] | 16.7 | 
Cc1ccnc(Nc2nc(N(C)C)nc3c(C(=O)O)nn(CC4CCOCC4)c23)c1 [Example 57] |  | 100
CCOCCn1nc(C(=O)O)c2nc(N(C)CC(C)C)nc(Nc3cc(C)ccn3)c21 [Example 16] | 0.51 | 
CCOCCn1nc(-c2nnn[nH]2)c2nc(N(C)C(C)C)nc(Nc3cc(C)ccn3)c21 [Example 79] | 0.332 | 
CCOCCn1nc(C(=O)O)c2nc(N(C)C3CCCC3)nc(Nc3cc(C)ccn3)c21 [Example 18] | 11.3 | 
Cc1ccnc(Nc2nc(N(C)C(C)C)nc3c(C(=O)NS(C)(=O)=O)nn(CCOCC(F)F)c23)c1 [Example 181] | 1.29 | 
CCOCCn1nc(C(=O)O)c2nc(N(C)C)nc(Nc3cc(CC)ccn3)c21 [Example 37] | 23.9 | 
CCOCCn1nc(C(=O)OC)c2nc(N(C)CC)nc(Nc3cc(C)ccn3)c21 [Example 2] | 0.201 | 
CCOCCn1nc(C(=O)O)c2nc(N(C)CC)nc(Nc3ccc(C)c(C)c3)c21 [Example 103] | 21.4 | 
CCOCCn1nc(C(=O)O)c2nc(N(C)C)nc(Nc3ccc(C)c(C)c3)c21 [Example 102] | 38.2 | 
Cc1ccnc(Nc2nc(N(C)C3CCC3)nc3c(C(=O)O)nn(CCOCC(F)(F)F)c23)c1 [Example 130, 5-[Cyclobutyl(methyl)amino]-7-[(4-methylpyridin-2-yl)amino]-1-[2-(2,2,2-trifluoroethoxy)ethyl]-1H-pyrazolo[4,3-d]pyrimidine-3-carboxylic acid] | 19.5 | 
CCOCCn1nc(C(=O)OCC)c2nc(N3CCN[C@H](C)C3)nc(Nc3cc(C)ccn3)c21 [Example 8] | 3.82 | 
CCOCCn1nc(C(=O)OCC)c2nc(N(C)CC)nc(Nc3cc(C)ccn3)c21 [Example 7, Ethyl 1-(2-ethoxyethyl)-5-(N-ethyl-N-methylamino)-7-(4-methylpyridin-2-ylamino)-1H pyrazolo[4,3-d]pyrimidine-3-carboxylate] | 0.082 | 
CCCOCCn1nc(C(=O)NS(C)(=O)=O)c2nc(N(CC)CC)nc(Nc3cc(C)ccn3)c21 [Example 183, 5-(Diethylamino)-7-[(4-methylpyridin-2-yl)amino]-N-(methylsulfonyl)-1-(2-propoxyethyl)-1H-pyrazolo[4,3-d]pyrimidine-3-carboxamide] | 0.383 | 
CCOCCn1nc(C(=O)NS(C)(=O)=O)c2nc(N(C)CC)nc(Nc3cc(CO)ccn3)c21 [Example 153] | 0.398 | 
